Test results published in ChEMBL document CHEMBL6127104, “Prorocentin-5: A Cytotoxic Polyketide from the Benthic Marine Dinoflagellate Prorocentrum lima” (J Nat Prod, 2024).
Active and inactive are the calls of the source. The calls are words filed in the database; no cut-off is given here.

Key:
[1] = system: HCT-116; assay: Induction of apoptosis in human HCT-116 cells assessed as fold increase in late apoptotic cells at 1 uM incubated for 24 hrs by Annexin V-FITC/PI staining based analysis; format: functional
[2] = system: N2a; assay: Cytotoxicity against mouse Neuro2a cells assessed as inhibition of cell proliferation at 0.1 to 10 uM incubated for 24 hrs by MTT assay; format: functional, cell-based; settings: dose 0.1-10 µM
[3] = system: HepG2; assay: Induction of apoptosis in human HepG2 cells assessed as fold increase in early apoptotic cells at 1 uM incubated for 24 hrs by Annexin V-FITC/PI staining based flow cytometric analysis; format: functional
[4] = system: HepG2; assay: Induction of cell cycle arrest in human HepG2 cells assessed as accumulation of cells at S phase at 0.1 uM incubated for 24 hrs by flow cytometric analysis (reference value: 27.8 %); format: functional
[5] = system: HCT-116; assay: Induction of cell cycle arrest in human HCT-116 cells assessed as accumulation of cells at G2/M phase at 1 uM incubated for 24 hrs by flow cytometric analysis (reference value: 30.6 %); format: functional
[6] = system: HCT-116; assay: Induction of apoptosis in human HCT-116 cells assessed as necrotic cells at 1 uM incubated for 24 hrs by Annexin V-FITC/PI staining based flow cytometric analysis (reference value: 1.45 %); format: functional
[7] = system: N2a; assay: Induction of cell cycle arrest in mouse Neuro2a cells assessed as accumulation of cells at G0/G1 phase at 0.1 uM incubated for 24 hrs by flow cytometric analysis (reference value: 61.5 %); format: functional
[8] = system: N2a; assay: Induction of apoptosis in mouse Neuro2a cells assessed as late apoptotic cells at 0.1 uM incubated for 24 hrs by Annexin V-FITC/PI staining based analysis (reference value: 0.81 %); format: functional
[9] = system: N2a; assay: Induction of cell cycle arrest in mouse Neuro2a cells assessed as accumulation of cells at S phase at 0.1 uM incubated for 24 hrs by flow cytometric analysis (reference value: 30.5 %); format: functional
[10] = system: HCT-116; assay: Induction of cell cycle arrest in human HCT-116 cells assessed as accumulation of cells at S phase at 1 uM incubated for 24 hrs by flow cytometric analysis (reference value: 19.2 %); format: functional
[11] = system: HepG2; assay: Induction of apoptosis in human HepG2 cells assessed as necrotic cells at 0.1 uM incubated for 24 hrs by Annexin V-FITC/PI staining based flow cytometric analysis (reference value: 3.02 %); format: functional
[12] = system: HepG2; assay: Induction of apoptosis in human HepG2 cells assessed as fold increase in late apoptotic cells at 1 uM incubated for 24 hrs by Annexin V-FITC/PI staining based flow cytometric analysis; format: functional
[13] = system: HCT-116; assay: Cytotoxicity against human HCT-116 cells assessed as inhibition of cell proliferation at 0.1 to 10 uM incubated for 24 hrs by MTT assay; format: functional, cell-based; settings: dose 0.1-10 µM
[14] = system: N2a; assay: Induction of apoptosis in mouse Neuro2a cells assessed as necrotic cells at 0.1 uM incubated for 24 hrs by Annexin V-FITC/PI staining based analysis (reference value: 4.33 %); format: functional
[15] = system: HepG2; assay: Induction of apoptosis in human HepG2 cells assessed as necrotic cells at 1 uM incubated for 24 hrs by Annexin V-FITC/PI staining based flow cytometric analysis (reference value: 3.02 %); format: functional
[16] = system: HepG2; assay: Induction of apoptosis in human HepG2 cells assessed as late apoptotic cells at 1 uM incubated for 24 hrs by Annexin V-FITC/PI staining based flow cytometric analysis (reference value: 2.05 %); format: functional
[17] = system: HCT-116; assay: Induction of apoptosis in human HCT-116 cells assessed as fold increase in early apoptotic cells at 1 uM incubated for 24 hrs by Annexin V-FITC/PI staining based analysis; format: functional
[18] = system: HCT-116; assay: Induction of apoptosis in human HCT-116 cells assessed as early apoptotic cells at 0.1 uM incubated for 24 hrs by Annexin V-FITC/PI staining based flow cytometric analysis (reference value: 1.90 %); format: functional
[19] = system: N2a; assay: Induction of apoptosis in mouse Neuro2a cells assessed as early apoptotic cells at 1 uM incubated for 24 hrs by Annexin V-FITC/PI staining based analysis (reference value: 3.17 %); format: functional
[20] = system: HCT-116; assay: Induction of cell cycle arrest in human HCT-116 cells assessed as accumulation of cells at G2/M phase at 0.1 uM incubated for 24 hrs by flow cytometric analysis (reference value: 30.6 %); format: functional
[21] = system: N2a; assay: Induction of apoptosis in mouse Neuro2a cells assessed as fold increase in late apoptotic cells at 1 uM incubated for 24 hrs by Annexin V-FITC/PI staining based analysis; format: functional
[22] = system: HepG2; assay: Induction of cell cycle arrest in human HepG2 cells assessed as accumulation of cells at G2/M phase at 1 uM incubated for 24 hrs by flow cytometric analysis (reference value: 27.8 %); format: functional
[23] = system: N2a; assay: Induction of cell cycle arrest in mouse Neuro2a cells assessed as accumulation of cells at G0/G1 phase at 1 uM incubated for 24 hrs by flow cytometric analysis (reference value: 61.5 %); format: functional
[24] = system: HCT-116; assay: Induction of apoptosis in human HCT-116 cells assessed as viable cells at 0.1 uM incubated for 24 hrs by Annexin V-FITC/PI staining based flow cytometric analysis (reference value: 90.50 %); format: functional; settings: read-out: Activity
[25] = system: HepG2; assay: Induction of cell cycle arrest in human HepG2 cells assessed as accumulation of cells at G2/M phase at 0.1 uM incubated for 24 hrs by flow cytometric analysis (reference value: 6.7 %); format: functional
[26] = system: HCT-116; assay: Induction of cell cycle arrest in human HCT-116 cells assessed as accumulation of cells at S phase at 0.1 uM incubated for 24 hrs by flow cytometric analysis (reference value: 19.2 %); format: functional
[27] = system: HepG2; assay: Induction of cell cycle arrest in human HepG2 cells assessed as accumulation of cells at S phase at 1 uM incubated for 24 hrs by flow cytometric analysis (reference value: 27.8 %); format: functional

CC(=O)CCCCC[C@@H](O)[C@H](C)C[C@H](C)CC[C@@H]1O[C@H]1C[C@@H]1CC[C@@H](/C=C/C=C/C[C@H](O)C[C@H]2C=C[C@@H](C=C(C)C)O2)O1
fold change (FC) [1]: 2.9
Activity [2]: Active
fold change (FC) [3]: 5.8
Activity [4]: 36%
Activity [5]: 27.1%
Activity [6]: 18.45%
Activity [7]: 51.5%
Activity [8]: 7.2%
Activity [9]: 38.1%
Activity [10]: 26%
Activity [11]: 1.88%
fold change (FC) [12]: 10
Activity [13]: Active
Activity [14]: 1.16%
Activity [15]: 1.72%
Activity [16]: 20.59%
fold change (FC) [17]: 2.7
Activity [18]: 4.9%
Activity [19]: 17.3%
Activity [20]: 31.9%
fold change (FC) [21]: 30.7
Activity [22]: 13%
Activity [23]: 43.2%
viability at 0.1 µM [24]: 75.2%
Activity [25]: 10.5%
Activity [26]: 18.7%
Activity [27]: 34.7%
